From ChEMBL document CHEMBL1201862, “PubChem BioAssay data set” (2004)
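Interpolation was linear, between the two tested concentrations surrounding the appropriate level; five concentrations were tested over 48 hours in 96-well plates. GI50 = concentration required for 50% inhibition of growth.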 Active and inactive are the calls of the source. Cut-off read from the data, not from the text of the source: active = GI50 up to about 1.1 µM and inactive = higher.

How the values were obtained:
Experiment in all cases: NCI-60 cell line screen, 48 h
COLO 205 = test system: COLO 205
LOX IMVI = test system: LOX IMVI
SF-295 = test system: SF-295
RPMI-8226 = test system: RPMI-8226
SNB-75 = test system: SNB-75
SK-MEL-5 = test system: SK-MEL-5
HCC 2998 = test system: HCC 2998
786-0 = test system: 786-0
U-251 = test system: U-251
ACHN = test system: ACHN
SN12C = test system: SN12C
UO-31 = test system: UO-31
OVCAR-3 = test system: OVCAR-3
T47D = test system: T47D
RXF 393 = test system: RXF 393
MOLT-4 = test system: MOLT-4
MDA-MB-231 = test system: MDA-MB-231
EKVX = test system: EKVX
OVCAR-5 = test system: OVCAR-5
HT-29 = test system: HT-29
SK-OV-3 = test system: SK-OV-3
MDA-MB-435 = test system: MDA-MB-435
PC-3 = test system: PC-3
TK-10 = test system: TK-10
SK-MEL-2 = test system: SK-MEL-2
SK-MEL-28 = test system: SK-MEL-28
SNB-19 = test system: SNB-19
IGROV-1 = test system: IGROV-1
KM12 = test system: KM12
HCT-15 = test system: HCT-15
A549 = test system: A549
MDA-N = test system: MDA-N
UACC-257 = test system: UACC-257
MCF7 = test system: MCF7
HCT-116 = test system: HCT-116
NCI-H522 = test system: NCI-H522
Hs-578T = test system: Hs-578T
NCI-H460 = test system: NCI-H460
Malme-3M = test system: Malme-3M
SW-620 = test system: SW-620
CCRF-CEM = test system: CCRF-CEM
UACC-62 = test system: UACC-62
DU-145 = test system: DU-145
OVCAR-4 = test system: OVCAR-4
A498 = test system: A498
OVCAR-8 = test system: OVCAR-8
M14 = test system: M14
K562 = test system: K562
HOP-62 = test system: HOP-62
SF-268 = test system: SF-268
NCI-H226 = test system: NCI-H226
NCI/ADR-RES = test system: NCI/ADR-RES
BT-549 = test system: BT-549
SR = test system: SR
CAKI-1 = test system: CAKI-1
HL-60 = test system: HL-60
NCI-H23 = test system: NCI-H23

Measured: GI50

CCOC(=O)N1CC2(C)C=CC1C(C(=O)OC)C2 (configuration not stated)
> 100 µM: HCT-15
inactive: COLO 205 > 100 µM | LOX IMVI > 100 µM | SF-295 > 100 µM | RPMI-8226 > 100 µM | SNB-75 > 100 µM | SK-MEL-5 > 100 µM | HCC 2998 > 100 µM | 786-0 > 100 µM | U-251 > 100 µM | ACHN > 100 µM | SN12C > 100 µM | UO-31 > 100 µM | OVCAR-3 > 100 µM | T47D > 100 µM | RXF 393 > 100 µM | MOLT-4 > 100 µM | MDA-MB-231 > 100 µM | EKVX > 100 µM | OVCAR-5 > 100 µM | HT-29 > 100 µM | SK-OV-3 > 100 µM | MDA-MB-435 > 100 µM | PC-3 > 100 µM | TK-10 > 100 µM | SK-MEL-2 > 100 µM | SK-MEL-28 > 100 µM | SNB-19 > 100 µM | IGROV-1 > 100 µM | KM12 > 100 µM | A549 > 100 µM | MDA-N > 100 µM | UACC-257 > 100 µM | MCF7 > 100 µM | HCT-116 > 100 µM | NCI-H522 > 100 µM | Hs-578T > 100 µM | NCI-H460 > 100 µM | Malme-3M > 100 µM | SW-620 > 100 µM | CCRF-CEM > 100 µM | UACC-62 > 100 µM | DU-145 > 100 µM | OVCAR-4 > 100 µM | A498 > 100 µM | OVCAR-8 > 100 µM | M14 > 100 µM | K562 > 100 µM | HOP-62 > 100 µM | SF-268 > 100 µM | NCI-H226 69.8 µM | NCI/ADR-RES > 100 µM | BT-549 > 100 µM | SR > 100 µM | CAKI-1 > 100 µM | HL-60 > 100 µM | NCI-H23 > 100 µM
